Data from ChEMBL document CHEMBL1155237, “Selective inhibitors of the mutant B-Raf pathway: discovery of a potent and orally bioavailable aminoisoquinoline” (J Med Chem, 2009).

Key:
Parameters in all cases: scale not given: the % may be the effect or the level left
[1] = molecular target: Mitogen-activated protein kinase kinase kinase kinase 3 (Homo sapiens) (UniProt Q8IVH8); test: Inhibition of MAP4K3 assessed as enzyme activity at 1 uM relative to untreated control
[2] = molecular target: Ephrin type-A receptor 2 (Homo sapiens) (UniProt P29317); test: Inhibition of EPHA2 assessed as enzyme activity at 1 uM relative to untreated control
[3] = system: Epidermal growth factor receptor (Homo sapiens), P00533 [L861Q]; test: Inhibition of EGFR L861Q mutant assessed as enzyme activity at 1 uM relative to untreated control; format: protein assay
[4] = molecular target: Ephrin type-A receptor 1 (Homo sapiens) (UniProt P21709); test: Inhibition of EPHA1 assessed as enzyme activity at 1 uM relative to untreated control
[5] = molecular target: Cyclin-dependent kinase 11B (Homo sapiens) (UniProt P21127); test: Inhibition of CDC2L1 assessed as enzyme activity at 1 uM relative to untreated control
[6] = molecular target: Mitogen-activated protein kinase kinase kinase 20 (Homo sapiens) (UniProt Q9NYL2); test: Inhibition of ZAK assessed as enzyme activity at 1 uM relative to untreated control
[7] = molecular target: Bone morphogenetic protein receptor type-2 (Homo sapiens) (UniProt Q13873); test: Inhibition of BMPR2 assessed as enzyme activity at 1 uM relative to untreated control
[8] = molecular target: Casein kinase I isoform epsilon (Homo sapiens) (UniProt P49674); test: Inhibition of CSNK1E assessed as enzyme activity at 1 uM relative to untreated control
[9] = molecular target: Insulin-like growth factor 1 receptor (Homo sapiens) (UniProt P08069); test: Inhibition of IGF1R assessed as enzyme activity at 1 uM relative to untreated control
[10] = molecular target: Myosin light chain kinase 2, skeletal/cardiac muscle (Homo sapiens) (UniProt Q9H1R3); test: Inhibition of MYLK2 assessed as enzyme activity at 1 uM relative to untreated control
[11] = molecular target: Cyclin-dependent kinase 18 (Homo sapiens) (UniProt Q07002); test: Inhibition of PCTK3 assessed as enzyme activity at 1 uM relative to untreated control
[12] = molecular target: Receptor tyrosine-protein kinase erbB-2 (Homo sapiens) (UniProt P04626); test: Inhibition of ERBB2 assessed as enzyme activity at 1 uM relative to untreated control
[13] = molecular target: Tyrosine-protein kinase Yes (Homo sapiens) (UniProt P07947); test: Inhibition of YES assessed as enzyme activity at 1 uM relative to untreated control
[14] = molecular target: Ephrin type-B receptor 3 (Homo sapiens) (UniProt P54753); test: Inhibition of EPHB3 assessed as enzyme activity at 1 uM relative to untreated control
[15] = molecular target: Tyrosine-protein kinase Fgr (Homo sapiens) (UniProt P09769); test: Inhibition of FGR assessed as enzyme activity at 1 uM relative to untreated control
[16] = molecular target: Mitogen-activated protein kinase 10 (Homo sapiens) (UniProt P53779); test: Inhibition of JNK3 assessed as enzyme activity at 1 uM relative to untreated control
[17] = molecular target: Mitogen-activated protein kinase kinase kinase kinase 1 (Homo sapiens) (UniProt Q92918); test: Inhibition of MAP4K1 assessed as enzyme activity at 1 uM relative to untreated control
[18] = molecular target: Activin receptor type-2B (Homo sapiens) (UniProt Q13705); test: Inhibition of ACVR2B assessed as enzyme activity at 1 uM relative to untreated control
[19] = molecular target: Macrophage colony-stimulating factor 1 receptor (Homo sapiens) (UniProt P07333); test: Inhibition of CSF1R assessed as enzyme activity at 1 uM relative to untreated control
[20] = molecular target: Ephrin type-B receptor 2 (Homo sapiens) (UniProt P29323); test: Inhibition of EPHB2 assessed as enzyme activity at 1 uM relative to untreated control
[21] = molecular target: Aurora kinase A (Homo sapiens) (UniProt O14965); test: Inhibition of AURKA assessed as enzyme activity at 1 uM relative to untreated control
[22] = molecular target: Death-associated protein kinase 3 (Homo sapiens) (UniProt O43293); test: Inhibition of DAPK3 assessed as enzyme activity at 1 uM relative to untreated control
[23] = molecular target: Mitogen-activated protein kinase 12 (Homo sapiens) (UniProt P53778); test: Inhibition of p38-gamma assessed as enzyme activity at 1 uM relative to untreated control
[24] = molecular target: Serine/threonine-protein kinase 17B (Homo sapiens) (UniProt O94768); test: Inhibition of DRAK2 assessed as enzyme activity at 1 uM relative to untreated control
[25] = molecular target: Serine/threonine-protein kinase RIO2 (Homo sapiens) (UniProt Q9BVS4); test: Inhibition of RIOK2 assessed as enzyme activity at 1 uM relative to untreated control
[26] = molecular target: Serine/threonine-protein kinase 17A (Homo sapiens) (UniProt Q9UEE5); test: Inhibition of DRAK1 assessed as enzyme activity at 1 uM relative to untreated control
[27] = molecular target: TGF-beta receptor type-1 (Homo sapiens) (UniProt P36897); test: Inhibition of TGFBR1 assessed as enzyme activity at 1 uM relative to untreated control
[28] = molecular target: Mitogen-activated protein kinase 13 (Homo sapiens) (UniProt O15264); test: Inhibition of p38delta assessed as enzyme activity at 1 uM relative to untreated control
[29] = molecular target: Serine/threonine-protein kinase Nek6 (Homo sapiens) (UniProt Q9HC98); test: Inhibition of NEK6 assessed as enzyme activity at 1 uM relative to untreated control
[30] = molecular target: Serine/threonine-protein kinase ULK3 (Homo sapiens) (UniProt Q6PHR2); test: Inhibition of ULK3 assessed as enzyme activity at 1 uM relative to untreated control
[31] = molecular target: Ribosomal protein S6 kinase alpha-2 (Homo sapiens) (UniProt Q15349); test: Inhibition of RPS6KA2 kinase domain 1 assessed as enzyme activity at 1 uM relative to untreated control
[32] = molecular target: Platelet-derived growth factor receptor alpha (Homo sapiens) (UniProt P16234); test: Inhibition of PDGFRA assessed as enzyme activity at 1 uM relative to untreated control
[33] = molecular target: Mitogen-activated protein kinase kinase kinase 11 (Homo sapiens) (UniProt Q16584); test: Inhibition of MLK3 assessed as enzyme activity at 1 uM relative to untreated control
[34] = molecular target: Non-receptor tyrosine-protein kinase TYK2 (Homo sapiens) (UniProt P29597); test: Inhibition of TYK2 kinase domain 2 assessed as enzyme activity at 1 uM relative to untreated control
[35] = molecular target: Mitogen-activated protein kinase 6 (Homo sapiens) (UniProt Q16659); test: Inhibition of ERK3 assessed as enzyme activity at 1 uM relative to untreated control
[36] = molecular target: Aurora kinase C (Homo sapiens) (UniProt Q9UQB9); test: Inhibition of AURKC assessed as enzyme activity at 1 uM relative to untreated control
[37] = molecular target: NUAK family SNF1-like kinase 2 (Homo sapiens) (UniProt Q9H093); test: Inhibition of SNARK assessed as enzyme activity at 1 uM relative to untreated control
[38] = system: Tyrosine-protein kinase ABL1 (Homo sapiens), P00519 [F317I]; test: Inhibition of ABL1 F317I mutant assessed as enzyme activity at 1 uM relative to untreated control

Chain of Mitogen-activated protein kinase 10 (Homo sapiens) (P53779 whole entry): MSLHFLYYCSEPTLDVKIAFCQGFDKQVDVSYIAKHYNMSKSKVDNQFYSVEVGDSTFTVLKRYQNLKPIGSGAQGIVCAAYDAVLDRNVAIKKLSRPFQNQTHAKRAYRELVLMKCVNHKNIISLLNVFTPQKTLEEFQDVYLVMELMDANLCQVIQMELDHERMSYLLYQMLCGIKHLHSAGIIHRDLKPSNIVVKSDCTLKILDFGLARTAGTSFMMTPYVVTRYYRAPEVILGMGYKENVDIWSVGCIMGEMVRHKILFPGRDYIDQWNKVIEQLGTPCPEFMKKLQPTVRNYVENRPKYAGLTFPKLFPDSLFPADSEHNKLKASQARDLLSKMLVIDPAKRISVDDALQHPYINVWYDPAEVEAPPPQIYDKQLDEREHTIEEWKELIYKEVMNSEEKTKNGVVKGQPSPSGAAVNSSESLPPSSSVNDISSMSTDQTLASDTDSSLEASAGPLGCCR
Chain of Ephrin type-B receptor 3 (Homo sapiens) (P54753 whole entry): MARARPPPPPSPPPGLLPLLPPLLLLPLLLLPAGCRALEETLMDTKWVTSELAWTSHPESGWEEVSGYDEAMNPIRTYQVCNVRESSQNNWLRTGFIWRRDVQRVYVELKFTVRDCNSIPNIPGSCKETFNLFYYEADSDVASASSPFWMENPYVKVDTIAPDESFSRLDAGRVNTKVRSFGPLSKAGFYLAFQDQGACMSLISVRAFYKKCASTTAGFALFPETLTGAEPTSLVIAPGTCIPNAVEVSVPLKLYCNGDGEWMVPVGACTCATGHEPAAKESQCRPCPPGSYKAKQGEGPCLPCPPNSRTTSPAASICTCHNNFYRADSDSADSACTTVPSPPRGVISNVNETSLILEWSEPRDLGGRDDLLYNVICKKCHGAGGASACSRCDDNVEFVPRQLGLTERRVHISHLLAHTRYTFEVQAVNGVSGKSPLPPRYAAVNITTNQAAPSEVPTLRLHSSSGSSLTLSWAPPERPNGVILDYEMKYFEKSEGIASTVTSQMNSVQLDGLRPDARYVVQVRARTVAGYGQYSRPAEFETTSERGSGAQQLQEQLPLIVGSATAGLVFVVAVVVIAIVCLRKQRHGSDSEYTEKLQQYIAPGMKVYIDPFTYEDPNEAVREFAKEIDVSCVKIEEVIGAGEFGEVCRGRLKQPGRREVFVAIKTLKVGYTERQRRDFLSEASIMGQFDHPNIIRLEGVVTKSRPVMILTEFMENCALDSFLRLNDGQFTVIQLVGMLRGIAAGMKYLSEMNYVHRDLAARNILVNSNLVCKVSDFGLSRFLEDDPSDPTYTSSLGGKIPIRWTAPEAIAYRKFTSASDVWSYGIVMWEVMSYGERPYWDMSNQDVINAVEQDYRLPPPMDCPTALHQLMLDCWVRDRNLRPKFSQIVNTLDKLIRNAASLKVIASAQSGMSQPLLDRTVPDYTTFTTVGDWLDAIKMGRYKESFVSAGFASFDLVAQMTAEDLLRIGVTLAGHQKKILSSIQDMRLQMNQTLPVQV
Chain of Tyrosine-protein kinase Yes (Homo sapiens) (P07947 2-543 limits assumed): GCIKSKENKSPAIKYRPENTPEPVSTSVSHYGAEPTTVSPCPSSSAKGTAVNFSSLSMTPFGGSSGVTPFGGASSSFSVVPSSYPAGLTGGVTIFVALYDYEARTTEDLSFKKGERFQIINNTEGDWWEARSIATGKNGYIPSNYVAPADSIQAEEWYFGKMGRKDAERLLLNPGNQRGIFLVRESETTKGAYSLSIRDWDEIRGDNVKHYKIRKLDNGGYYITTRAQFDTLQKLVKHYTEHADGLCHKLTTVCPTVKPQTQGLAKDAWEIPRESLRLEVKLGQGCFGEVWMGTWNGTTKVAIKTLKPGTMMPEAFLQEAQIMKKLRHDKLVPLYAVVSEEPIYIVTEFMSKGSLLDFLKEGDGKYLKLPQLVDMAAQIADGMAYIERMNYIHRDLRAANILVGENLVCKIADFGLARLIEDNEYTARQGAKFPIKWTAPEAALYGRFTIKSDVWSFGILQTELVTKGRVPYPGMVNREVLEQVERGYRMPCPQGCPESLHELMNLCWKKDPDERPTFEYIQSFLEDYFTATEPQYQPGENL
Chain of TGF-beta receptor type-1 (Homo sapiens) (P36897 whole entry): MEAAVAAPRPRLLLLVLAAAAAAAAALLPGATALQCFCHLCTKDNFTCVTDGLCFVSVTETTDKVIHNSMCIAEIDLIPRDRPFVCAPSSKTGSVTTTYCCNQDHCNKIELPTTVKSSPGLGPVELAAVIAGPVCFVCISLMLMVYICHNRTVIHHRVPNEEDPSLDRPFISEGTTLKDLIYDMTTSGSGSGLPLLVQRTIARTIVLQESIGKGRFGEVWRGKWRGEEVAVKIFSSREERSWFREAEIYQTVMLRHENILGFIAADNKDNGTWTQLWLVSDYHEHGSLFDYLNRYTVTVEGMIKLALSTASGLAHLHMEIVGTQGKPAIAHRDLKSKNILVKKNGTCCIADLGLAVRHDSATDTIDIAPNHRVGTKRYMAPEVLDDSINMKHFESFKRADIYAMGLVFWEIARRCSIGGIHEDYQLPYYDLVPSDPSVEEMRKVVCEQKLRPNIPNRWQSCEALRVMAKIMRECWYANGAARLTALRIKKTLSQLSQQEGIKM
Chain of Non-receptor tyrosine-protein kinase TYK2 (Homo sapiens) (P29597 whole entry, the tested form may be a part): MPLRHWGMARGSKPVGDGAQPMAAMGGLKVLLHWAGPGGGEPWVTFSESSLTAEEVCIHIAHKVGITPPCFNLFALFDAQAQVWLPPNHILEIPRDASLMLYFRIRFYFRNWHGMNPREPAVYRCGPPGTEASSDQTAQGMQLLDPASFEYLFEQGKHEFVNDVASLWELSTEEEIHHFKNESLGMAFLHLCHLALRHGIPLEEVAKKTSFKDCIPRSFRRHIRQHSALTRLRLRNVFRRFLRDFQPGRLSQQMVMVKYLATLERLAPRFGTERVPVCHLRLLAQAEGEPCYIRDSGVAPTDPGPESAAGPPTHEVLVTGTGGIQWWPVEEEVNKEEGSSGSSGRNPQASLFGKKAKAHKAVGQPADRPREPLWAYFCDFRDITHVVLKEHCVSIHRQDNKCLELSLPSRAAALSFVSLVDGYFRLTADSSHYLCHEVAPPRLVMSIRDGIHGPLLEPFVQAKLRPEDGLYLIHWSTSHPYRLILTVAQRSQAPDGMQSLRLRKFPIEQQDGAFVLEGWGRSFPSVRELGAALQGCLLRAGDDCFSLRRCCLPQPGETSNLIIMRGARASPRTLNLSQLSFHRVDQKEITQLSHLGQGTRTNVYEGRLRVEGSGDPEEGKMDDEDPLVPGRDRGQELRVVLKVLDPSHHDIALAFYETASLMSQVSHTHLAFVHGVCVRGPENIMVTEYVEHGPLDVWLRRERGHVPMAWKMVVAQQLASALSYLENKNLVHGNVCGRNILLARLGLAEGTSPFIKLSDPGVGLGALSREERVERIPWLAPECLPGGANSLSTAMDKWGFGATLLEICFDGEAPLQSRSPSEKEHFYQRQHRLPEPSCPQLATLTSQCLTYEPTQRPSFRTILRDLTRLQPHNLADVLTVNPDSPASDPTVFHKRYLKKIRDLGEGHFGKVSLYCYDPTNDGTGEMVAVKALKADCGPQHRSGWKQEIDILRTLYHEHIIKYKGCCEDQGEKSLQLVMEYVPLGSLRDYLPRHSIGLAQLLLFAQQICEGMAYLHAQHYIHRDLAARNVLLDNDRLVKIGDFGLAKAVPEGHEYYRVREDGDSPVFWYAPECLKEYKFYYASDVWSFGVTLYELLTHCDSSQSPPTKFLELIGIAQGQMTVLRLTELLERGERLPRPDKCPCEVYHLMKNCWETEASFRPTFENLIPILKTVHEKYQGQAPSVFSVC
Chain of Tyrosine-protein kinase Fgr (Homo sapiens) (P09769 2-529 limits assumed): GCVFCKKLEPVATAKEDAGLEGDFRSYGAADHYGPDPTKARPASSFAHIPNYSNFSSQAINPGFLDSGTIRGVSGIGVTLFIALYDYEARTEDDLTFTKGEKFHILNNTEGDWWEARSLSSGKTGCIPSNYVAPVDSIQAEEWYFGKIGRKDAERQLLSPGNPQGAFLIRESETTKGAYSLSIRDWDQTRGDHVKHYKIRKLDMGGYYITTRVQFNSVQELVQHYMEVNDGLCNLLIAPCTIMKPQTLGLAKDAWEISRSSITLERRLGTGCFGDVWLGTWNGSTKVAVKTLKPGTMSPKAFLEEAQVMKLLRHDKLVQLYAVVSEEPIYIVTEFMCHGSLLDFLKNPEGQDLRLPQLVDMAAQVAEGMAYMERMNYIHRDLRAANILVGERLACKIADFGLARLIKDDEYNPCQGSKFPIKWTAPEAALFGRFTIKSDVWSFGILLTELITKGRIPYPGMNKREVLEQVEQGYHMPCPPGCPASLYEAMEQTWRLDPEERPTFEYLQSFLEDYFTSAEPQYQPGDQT
Chain of Activin receptor type-2B (Homo sapiens) (Q13705 whole entry): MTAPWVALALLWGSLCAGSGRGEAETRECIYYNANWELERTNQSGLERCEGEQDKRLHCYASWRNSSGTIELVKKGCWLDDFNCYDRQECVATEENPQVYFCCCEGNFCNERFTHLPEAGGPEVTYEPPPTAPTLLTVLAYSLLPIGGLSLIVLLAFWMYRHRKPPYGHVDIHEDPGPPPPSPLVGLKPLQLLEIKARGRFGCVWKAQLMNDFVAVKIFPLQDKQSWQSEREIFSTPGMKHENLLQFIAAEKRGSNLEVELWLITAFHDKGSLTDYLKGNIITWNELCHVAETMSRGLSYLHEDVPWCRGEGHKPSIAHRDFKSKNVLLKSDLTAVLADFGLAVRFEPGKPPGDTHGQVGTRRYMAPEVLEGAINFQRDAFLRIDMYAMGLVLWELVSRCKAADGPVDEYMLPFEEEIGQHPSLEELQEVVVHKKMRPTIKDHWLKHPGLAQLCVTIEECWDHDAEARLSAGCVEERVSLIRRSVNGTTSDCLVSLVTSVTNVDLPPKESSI
Chain of Serine/threonine-protein kinase Nek6 (Homo sapiens) (Q9HC98 whole entry): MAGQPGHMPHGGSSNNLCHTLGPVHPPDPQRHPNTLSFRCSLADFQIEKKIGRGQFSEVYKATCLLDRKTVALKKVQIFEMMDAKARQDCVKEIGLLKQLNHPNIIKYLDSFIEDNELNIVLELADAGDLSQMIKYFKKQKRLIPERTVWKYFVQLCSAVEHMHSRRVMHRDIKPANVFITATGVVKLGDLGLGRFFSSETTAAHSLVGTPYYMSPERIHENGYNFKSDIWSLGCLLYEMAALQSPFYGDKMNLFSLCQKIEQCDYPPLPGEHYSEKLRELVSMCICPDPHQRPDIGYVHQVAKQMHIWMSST

`Cc1ccc2c(Nc3ccc(Cl)cc3)nccc2c1Nc1ncccc1-c1ncnc2[nH]cnc12.Cl.Cl.Cl` gave an Activity [1] of 85%, an Activity [2] of 2.8% and an Activity [3] of 86%. The Activity [4] was 4.6%, the Activity [5] was 42% and the Activity [6] was 87%. It also gave an Activity [7] of 100%, an Activity [8] of 99% and an Activity [9] of 94%. The Activity [10] was 100%, the Activity [11] was 95% and the Activity [12] was 97%. For the same compound, the Activity [13] was 52%, the Activity [14] was 10% and the Activity [15] was 100%. It also gave an Activity [16] of 86%, an Activity [17] of 100% and an Activity [18] of 100%. The Activity [19] was 0.25%, the Activity [20] was 6.1% and the Activity [21] was 100%. For the same compound, the Activity [22] was 100%, the Activity [23] was 100% and the Activity [24] was 96%. The Activity [25] was 100%, the Activity [26] was 100% and the Activity [27] was 89%. The Activity [28] was 100%, the Activity [29] was 100% and the Activity [30] was 100%. It also gave an Activity [31] of 100%, an Activity [32] of 88% and an Activity [33] of 100%. It also gave an Activity [34] of 28%, an Activity [35] of 98% and an Activity [36] of 86%. The Activity [37] was 100% and the Activity [38] was 86%.
